We go through eight compounds from patent publication US5137811A, “Method for diagnosing periodontal diseases with a substrate specific for aminopeptidase activity of periodontopathic bacteria” (Sunstar Kabushiki Kaisha, priority 1986, dated 1992).

The structures appear in SMILES notation. *1 amine or outer side, *2 acyl side, *3 side chain or, on linkers, in order; H or OH if unused. Where a SMILES comes first, the peptide text is derived from it. The star is where a group is joined. Suc = O=C(CCC(=O)[*:2])[*:1]; βNA = c1ccc2cc(N*)ccc2c1; Cbz = O=C(OCc1ccccc1)*; Bz = O=C(c1ccccc1)*

Experiment in all cases: Hydrolytic activity of cell suspension on aminopeptidase substrates (Experiment 2)
Format in all cases: cell-based

One test has as its system B. denticola. The conditions noted are these: Table 2. Here is the method:
(§1) The strains of Treponema were anaerobically cultivated using TYGVS media at 37° C. for 7 days, while other bacterial strains were cultivated using brain heart infusion broth at 37° C. for 48 to 72 hours. Each culture was diluted to obtain a bacterial cell suspension, the absorption at 660 nm of which was 1.0.
(§2) Substrate compounds for aminopeptidase enzyme having various color developing groups derived from β-naphthylamine were dissolved in 0.1M Tris-HCl buffer (pH 7.0) at the concentration of 0.2 mM to obtain substrate solutions.
(§3) To the substrate solution (1.5 ml) was added the above cell suspension (0.3 ml) and reacted at 37° C. for 60 minutes. After completion of the reaction, a coloring reagent [prepared by dissolving diazonium salt of Garnet GBC in 1M acetate buffer (containing 10% Tween 20, pH: 4.2) at the concentration of 0.5 mg/ml] was added and, after 15 minutes, the absorption at 525 nm was determined with a spectrophotometer.
(§4) On the basis of the average amount of released β-naphthylamine in each strain, the hydrolytic activity was expressed as follows: […]
(§5) According to the same manner as described in Experiment 1, periodontopathic bacteria specific aminopeptidase activity was tested by using four strains of Treponema denticola, five strains of B. gingivalis, three strains of B. intermedius, two strains of B. melaninogenicus, two strains of Actinomyces israelli, four strains of Actinobacillus actinomycetemcomitans and three strains of Fusobacterium nucleatum. Abbreviations used in Table 2 mean the following substrate compounds.

The subject of the next test is Actinomyces israelli. As to conditions: two strains, Table 2. Here is the method: as §1, §2, §3, §4, §5
The test system of a further test is Fusobacterium nucleatum. The conditions noted are these: three strains, Table 2. On the procedure:
as §1, §2, §3, §4, §5

The next test relates to B. gingivalis. As to conditions: five strains, Table 2. Here is the method: as §1, §2, §3, §4, §5
The test system of another test is B. intermedius. As to conditions: three strains, Table 2. On the procedure: as §1, §2, §3, §4, §5
The subject of a further test is B. melaninogenicus. The conditions noted are these: two strains, Table 2. On the procedure:
as §1, §2, §3, §4, §5

The subject of a further test is Treponema denticola. As to conditions: four strains, Table 2. Here is the method:
as §1, §2, §3, §4, §5

The subject of another test is B. corporis. As to conditions: Table 2. Here is the method: as §1, §2, §3, §4, §5
In test [1] the test system is Actinobacillus actinomycetemcomitans. As to conditions: four strains, Table 2. Here is the method: as §1, §2, §3, §4, §5

For `N[C@@H](CO)C(=O)N[C@@H](Cc1ccc(O)cc1)C(=O)Nc1ccc2ccccc2c1` [SY, seryl-tyrosine-β-naphthylamide, reference compound] (H-Ser-Tyr-βNA), the “hydrolytic activity (average amount of released β-naphthylamine)” value (“hydrolytic activity” below) is reported as “± (5 ≤release amount<10 nmol/ml)” with B. denticola; “- (release amount<5 nmol/ml)” with Actinomyces israelli; “- (release amount<5 nmol/ml)” with Fusobacterium nucleatum; “++ (20 ≤release amount<40 nmol/ml)” in the test with B. gingivalis; “- (release amount<5 nmol/ml)” in the test on B. intermedius; “± (5 ≤release amount<10 nmol/ml)” with B. melaninogenicus. Further, the “hydrolytic activity” value in the test on Treponema denticola is given as “- (release amount<5 nmol/ml)”; in the test on B. corporis, “± (5 ≤release amount<10 nmol/ml)”; in test [1], “- (release amount<5 nmol/ml)”.
As to `CC(C)[C@H](N)C(=O)N[C@@H](C)C(=O)Nc1ccc2ccccc2c1` [VA, valyl-alanine-β-naphthylamide, reference compound] (H-Val-Ala-βNA), the “hydrolytic activity” value with B. denticola is “± (5 ≤release amount<10 nmol/ml)”; in the test on Actinomyces israelli it was “- (release amount<5 nmol/ml)”; with Fusobacterium nucleatum, “- (release amount<5 nmol/ml)”; with B. gingivalis it was “++ (20 ≤release amount<40 nmol/ml)”; in the test with B. intermedius, “- (release amount<5 nmol/ml)”; in the test on B. melaninogenicus, “± (5 ≤release amount<10 nmol/ml)”. Besides, the “hydrolytic activity” value in the test on Treponema denticola is listed as “- (release amount<5 nmol/ml)”; in the test on B. corporis it was “± (5 ≤release amount<10 nmol/ml)”; in test [1], “- (release amount<5 nmol/ml)”.
For the compound `N[C@@H](Cc1ccccc1)C(=O)N1CCC[C@H]1C(=O)Nc1ccc2ccccc2c1` [FP, phenylalanyl-proline-β-naphthylamide] (H-Phe-Pro-βNA), the “hydrolytic activity” value is “+ (10 ≤release amount<20 nmol/ml)” in the test on B. denticola; “- (release amount<5 nmol/ml)” with Actinomyces israelli; “- (release amount<5 nmol/ml)” in the test with Fusobacterium nucleatum; “++ (20 ≤release amount<40 nmol/ml)” in the test with B. gingivalis; “+ (10 ≤release amount<20 nmol/ml)” in the test on B. intermedius; “+ (10 ≤release amount<20 nmol/ml)” with B. melaninogenicus. Further, the entries for the “hydrolytic activity” value (in the test with Treponema denticola; in the test with B. corporis; in test [1]) were “++ (20 ≤release amount<40 nmol/ml)”, “+ (10 ≤release amount<20 nmol/ml)” and “- (release amount<5 nmol/ml)”, respectively.
`CC(C)C[C@H](N)C(=O)NCC(=O)Nc1ccc2ccccc2c1` [LG, leucyl-glycine-β-naphthylamide, reference compound] (H-Leu-Gly-βNA): the “hydrolytic activity” value is listed as “++ (20 ≤release amount<40 nmol/ml)” in the test with B. denticola; “- (release amount<5 nmol/ml)” with Actinomyces israelli; “- (release amount<5 nmol/ml)” in the test on Fusobacterium nucleatum; “+ (10 ≤release amount<20 nmol/ml)” in the test on B. gingivalis; “- (release amount<5 nmol/ml)” in the test with B. intermedius; “+++ (release amount≥40 nmol/ml)” with B. melaninogenicus. Also, the “hydrolytic activity” value in the test on Treponema denticola was “- (release amount<5 nmol/ml)”; in the test on B. corporis it was “++ (20 ≤release amount<40 nmol/ml)”; in test [1], “- (release amount<5 nmol/ml)”.
For the compound `O=C(Nc1ccc2ccccc2c1)[C@@H]1CCCN1` [P, proline-β-naphthylamide, reference compound], the “hydrolytic activity” value with B. denticola, with Actinomyces israelli, in the test with Fusobacterium nucleatum, in the test with B. gingivalis, in the test on B. intermedius and in the test on B. melaninogenicus was “- (release amount<5 nmol/ml)” in each case. For the same compound, the “hydrolytic activity” value in the test with Treponema denticola was “+ (10 ≤release amount<20 nmol/ml)”; with B. corporis, “- (release amount<5 nmol/ml)”; in [1] it was “- (release amount<5 nmol/ml)”.
Regarding `O=C(CNC(=O)c1ccccc1)N[C@@H](Cc1ccccc1)C(=O)N1CCC[C@H]1C(=O)Nc1ccc2ccccc2c1` [BzGFP, N-benzoyl-glycyl-phenylalanyl-proline-β-naphthylamide] (Bz-Gly-Phe-Pro-βNA), the “hydrolytic activity” value is “++ (20 ≤release amount<40 nmol/ml)” in the test with B. denticola; “- (release amount<5 nmol/ml)” in the test with Actinomyces israelli; “- (release amount<5 nmol/ml)” with Fusobacterium nucleatum; “++ (20 ≤release amount<40 nmol/ml)” in the test with B. gingivalis; “+++ (release amount≥40 nmol/ml)” in the test with B. intermedius; “++ (20 ≤release amount<40 nmol/ml)” in the test on B. melaninogenicus. The results for the “hydrolytic activity” value (with Treponema denticola; with B. corporis; in test [1]) were “+++ (release amount≥40 nmol/ml)”, “++ (20 ≤release amount<40 nmol/ml)” and “- (release amount<5 nmol/ml)”, respectively.
As for `CC(C)[C@H](NC(=O)OCc1ccccc1)C(=O)N[C@@H](CCCCN)C(=O)N1CCC[C@H]1C(=O)Nc1ccc2ccccc2c1` [CxVKP, N-carbobenzoxy-valyl-lysyl-proline-β-naphthylamide] (Cbz-Val-Lys-Pro-βNA), the “hydrolytic activity” value in the test on B. denticola is “++ (20 ≤release amount<40 nmol/ml)”; with Actinomyces israelli it was “- (release amount<5 nmol/ml)”; in the test on Fusobacterium nucleatum, “- (release amount<5 nmol/ml)”; in the test with B. gingivalis, “++ (20 ≤release amount<40 nmol/ml)”; in the test on B. intermedius it was “++ (20 ≤release amount<40 nmol/ml)”; with B. melaninogenicus, “++ (20 ≤release amount<40 nmol/ml)”. The “hydrolytic activity” value in the test with Treponema denticola is on record as “++ (20 ≤release amount<40 nmol/ml)”; in the test with B. corporis, “++ (20 ≤release amount<40 nmol/ml)”; in test [1], “- (release amount<5 nmol/ml)”.
Turning to `CC(C)C[C@H](NC(=O)[C@@H]1CCCN1C(=O)CNC(=O)CCC(=O)O)C(=O)NCC(=O)N1CCC[C@H]1C(=O)Nc1ccc2ccccc2c1` [ScGPLGP, N-succinyl-glycyl-prolyl-leucyl-glycyl-proline-β-naphthylamide] (Suc-GPLGP-βNA), the “hydrolytic activity” value in the test with B. denticola was “± (5 ≤release amount<10 nmol/ml)”; in the test with Actinomyces israelli it was “- (release amount<5 nmol/ml)”; in the test on Fusobacterium nucleatum, “- (release amount<5 nmol/ml)”; in the test with B. gingivalis it was “± (5 ≤release amount<10 nmol/ml)”; in the test on B. intermedius, “+ (10 ≤release amount<20 nmol/ml)”; in the test on B. melaninogenicus, “± (5 ≤release amount<10 nmol/ml)”. The “hydrolytic activity” value was “+ (10 ≤release amount<20 nmol/ml)” in the test with Treponema denticola, “± (5 ≤release amount<10 nmol/ml)” in the test on B. corporis and “- (release amount<5 nmol/ml)” in [1].
